From paper PMC3821638, “Molecular Cloning and Characterization of the Calcineurin Subunit A from Plutella xylostella” (International Journal of Molecular Sciences, 2013)
Where two headings read alike, the source gives them in different places.

Target: T1, Calcineurin subunit A (PxCNA), catalytic domain PxCNα (Plutella xylostella, UniProt V5U5Q7)
T1 construct: catalytic (phosphatase) domain CNA1–341 (PxCNα), His-tagged, expressed in E. coli
Experiment: pNPP phosphatase assay with purified recombinant rPxCNα, dose-response and enzyme kinetics
Type: biochemical

T1 sequence (V5U5Q7 1-341): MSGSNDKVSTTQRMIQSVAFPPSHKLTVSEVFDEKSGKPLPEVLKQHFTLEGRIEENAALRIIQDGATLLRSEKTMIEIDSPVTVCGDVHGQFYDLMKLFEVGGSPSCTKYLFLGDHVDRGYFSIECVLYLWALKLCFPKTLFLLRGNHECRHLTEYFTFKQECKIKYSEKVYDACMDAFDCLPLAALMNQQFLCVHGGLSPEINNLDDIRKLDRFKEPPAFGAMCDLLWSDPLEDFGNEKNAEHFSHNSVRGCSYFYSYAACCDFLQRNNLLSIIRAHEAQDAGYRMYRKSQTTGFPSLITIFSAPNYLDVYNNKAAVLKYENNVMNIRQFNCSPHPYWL

Structure (SMILES)	IC50 (read-out: IC50) [µM]	IC50 [µM]
C=C1[C@@H](O)[C@@H]2O[C@]3(CC[C@H](/C=C/[C@@H](C)[C@@H]4CC(C)=C[C@@]5(O[C@H](C[C@@](C)(O)C(=O)O)CC[C@H]5O)O4)O3)CC[C@H]2O[C@@H]1[C@@H](O)C[C@H](C)[C@H]1O[C@@]2(CCCCO2)CC[C@H]1C [OA, okadaic acid]	8.95	
C[C@@]12C(=O)OC(=O)[C@]1(C)[C@H]1CC[C@@H]2O1 [CTD, cantharidin]		77.6
